Laboratory results taken from patent US20110288154A1, “RNA Interference Mediated Inhibition of Epithelial Sodium Channel (ENaC) Gene Expression Using Short Interfering Nucleic Acid (siNA)” (MERCK & CO., INC., priority 2008, published 2011).
[invAb] = inverted abasic unit; m = 2'-O-methyl; r = 2'-OH (RNA); f = 2'-fluoro

Test system: ENaCα mRNA
Test: Screening of ENaCα siNAs in human A549 cells (quantitative RT-PCR)
Type: cell-based
Parameters: Percent Reduction of the ENaCα mRNA relative to a non-targeting control siNA (NTC): concentration or dose not given beside the values
Conditions: for Avg ENaCα Expression / Mean (level of ENaCα expression normalized to the level of GAPDH) / Percent Reduction of the ENaCα mRNA relative to a non-targeting control siNA (NTC) / Avg GAPDH Expression: human A549 cells, n = 3; for Avg ENaCα Expression: 25 nM siNA with Lipofectamine 2000, harvested 24 hours post-transfection; for Mean (level of ENaCα expression normalized to the level of GAPDH) / Percent Reduction of the ENaCα mRNA relative to a non-targeting control siNA (NTC) / Avg GAPDH Expression: 24 hours post-transfection; for Avg GAPDH Expression: housekeeping gene used for normalisation; for IC50 / Human % KD (efficacy of ENaCα mRNA knockdown): human cell line; for IC50: dose response, read-out: Human IC50 (potency of ENaCα mRNA knockdown); for Human % KD (efficacy of ENaCα mRNA knockdown): summary
Method: siNA constructs (Table 1b) may be tested for efficacy in reducing ENaC RNA expression in, for example, A549 human lung carcinoma cells. A549 (human; ATCC cat# CCL-185) cells were cultured at 37° C. in the presence of 5% CO2 and grown in Ham's F12K medium with 2 mM L-glutamine adjusted to contain 1.5 g/L sodium bicarbonate and supplemented with fetal bovine serum at a final concentration of 10% and 100 U/mL penicillin. The A549 cells were plated approximately 24 hours before transfection in 96-well plates at 7,500 cells/well, 100 μl/well. After 24 hours complexes containing siNA and Lipofectamine 2000 (Invitrogen) were created as follows: a solution of Lipofectamine 2000 in OPTI-MEM was prepared containing Lipofectamine 2000 at a final concentration of 14 μg/ml. In parallel, solutions of the siNAs were prepared in OPTI-MEM at a final concentration of 150 nM. After both solutions were incubated at 20° C. for 20 minutes an equal volume of the siNA solutions and the Lipofectamine 2000 solution were added together for each of the siNAs. The resultant solution has the siNAs at a final concentration of 75 nM and Lipofectamine 2000 at a final concentration of 7 μg/ml. This solution was incubated at 20° C. for 20 minutes. After incubation 50 μl of the solution were added to each of the wells (in triplicate). The final concentration of siNA in each well was 25 nM and the final concentration of Lipofectamine 2000 in each well was 2.33 μg/ml. […] Dose response curves were determined in a similar manner with each concentration being done in triplicate and maintaining a constant amount of Lipofectamine 2000 in each transfection.
RNA was extracted from 96-well plates using the Invitek Invisorb RNA Cell HTS 96 Kit/C (Cat# 70619000) with a slightly modified protocol. The details of the protocol for isolating RNA from each plate are described as follows:
1) Aspirate media with rake 2) Add 150 ul/well Lysis buffer 3) Place on plate shaker for 1 minute 4) Place DNA binding plate on top of 0.5 ml collection plate 5) Pipette 190 ul up and down twice and add to DNA binding plate 6) Cover plate 7) Centrifuge plates 4 minutes at 4000 RPM 8) Discard DNA binding plate 9) Place the RNA binding plate on top of 2 ml collection plate 10) Add 150 ul/well of Binding Buffer R to 0.5 ml collection plate 11) Move contents of 0.5 ml collection plate to RNA binding plate 12) Let incubate for 1 minute 13) Centrifuge plates 4 minutes at 4000 RPM 14) Add 600 ul/well of Wash Buffer R1 to RNA binding plate 15) Centrifuge plates 4 minutes at 4000 RPM 16) Dump wash buffer from 2 ml collection plate 17) Add 400 ul/well of Wash Buffer R2 to RNA binding plate 18) Centrifuge plates 4 minutes at 4000 RPM 19) Add 400 ul/well of Wash Buffer R2 to RNA binding plate 20) Centrifuge plates 10 minutes at 4000 RPM 21) Dump wash buffer from 2 ml collection plate 22) Centrifuge plates 3 minutes at 4000 RPM 23) Discard 2 ml collection plate and place RNA binding plate on to microtiter plate 24) Add 100 ul/well of elution buffer to RNA binding plate 25) Incubate for 2 minutes 26) Seal plate 27) Centrifuge plates 3 minutes at 4000 RPM 28) Discard RNA binding plate 29) Cover microtiter plate for storage in −80 freezer
A series of probes and primers were used to detect the various mRNA transcripts of the genes of ENaCa and GAPDH in mouse, rat, and human cell lines. The assays were performed on an ABI 7500 instrument, according to the manufacturer's instructions. Within each experiment, the baseline was set in the exponential phase of the amplification curve, and based on the intersection point of the baselines with the amplification curve, a Ct value was assigned by the instrument. This Ct value was then assigned a QTY value based on the Standard Curve. The standard curve in the various experiments herein used 1 ng to 300 ng of RNA extracted from the same cell line used for the experimental transfections. […]

B GccAuccGccuGGuGuGcu TTB / AGCAcAccAGGcGGAuGGcUU (sense GCCAUCCGCCUGGUGUGCUTT; antisense AGCACACCAGGCGGAUGGCUU; siRNA; sense: DNA at AGT, 2'-fluoro at CU, [invAb] at 5' end, 3' end, backbone not given here; antisense: sugars from the 5' end rrrmfmffmmmfmmrfmmfmm, backbone not given here) [Site 310]
Avg ENaCα Expression: 68.10 | Mean (level of ENaCα expression normalized to the level of GAPDH): 1.57 | Percent Reduction of the ENaCα mRNA relative to a non-targeting control siNA (NTC): −1.0% | Avg GAPDH Expression: 45.78

B GcuGuGccuAcAucuucuA TTB / UAGAAGAuGuAGGcAcAGcUU (sense GCUGUGCCUACAUCUUCUATT; antisense UAGAAGAUGUAGGCACAGCUU; siRNA; B caps on sense ends, letter-case modifications not given here, further chemistry not given here) [Site 1388]
Avg ENaCα Expression: 36.49 | Mean (level of ENaCα expression normalized to the level of GAPDH): 0.30 | Percent Reduction of the ENaCα mRNA relative to a non-targeting control siNA (NTC): 54.1% | Avg GAPDH Expression: 120.24 | IC50: 0.19 nM | Human % KD (efficacy of ENaCα mRNA knockdown): 55-80%

B GuGGcuGuGccuAcAucuu TTB / AAGAuGuAGGcAcAGccAcUU (sense GUGGCUGUGCCUACAUCUUTT; antisense AAGAUGUAGGCACAGCCACUU; siRNA; sense: DNA at AGT, 2'-fluoro at CU, [invAb] at 5' end, 3' end, backbone not given here; antisense: sugars from the 5' end rrrmfmfmmmfmfmmffmfmm, backbone not given here) [Site 1385]
Avg ENaCα Expression: 90.81 | Mean (level of ENaCα expression normalized to the level of GAPDH): 0.81 | Percent Reduction of the ENaCα mRNA relative to a non-targeting control siNA (NTC): −23.6% | Avg GAPDH Expression: 119.04

B GuGuGGcuGuGccuAcAuc TTB / GAUGuAGGcAcAGccAcAcUU (sense GUGUGGCUGUGCCUACAUCTT; antisense GAUGUAGGCACAGCCACACUU; siRNA; B caps on sense ends, letter-case modifications not given here, further chemistry not given here) [Site 1383]
Avg ENaCα Expression: 40.44 | Mean (level of ENaCα expression normalized to the level of GAPDH): 0.78 | Percent Reduction of the ENaCα mRNA relative to a non-targeting control siNA (NTC): 49.8% | Avg GAPDH Expression: 52.36 | IC50: 0.41 nM | Human % KD (efficacy of ENaCα mRNA knockdown): 50-70%

B GuccAAccuGGGcAGccAG TTB / CUGGcuGcccAGGuuGGAcUU (sense GUCCAACCUGGGCAGCCAGTT; antisense CUGGCUGCCCAGGUUGGACUU; siRNA; sense: DNA at AGT, 2'-fluoro at CU, [invAb] at 5' end, 3' end, backbone not given here; antisense: sugars from the 5' end rmmmffmfffmmmffmmmfmm, backbone not given here) [Site 1743]
Avg ENaCα Expression: 68.82 | Mean (level of ENaCα expression normalized to the level of GAPDH): 0.57 | Percent Reduction of the ENaCα mRNA relative to a non-targeting control siNA (NTC): 13.9% | Avg GAPDH Expression: 121.24

B cAGAGcAGAAuGAcuucAu TTB / AUGAAGucAuucuGcucuGUU (sense CAGAGCAGAAUGACUUCAUTT; antisense AUGAAGUCAUUCUGCUCUGUU; siRNA; sense: DNA at AGT, 2'-fluoro at CU, [invAb] at 5' end, 3' end, backbone not given here; antisense: sugars from the 5' end rrrmmmffmffffmffffmmm, backbone not given here) [Site 1100]
Avg ENaCα Expression: 66.11 | Mean (level of ENaCα expression normalized to the level of GAPDH): 1.14 | Percent Reduction of the ENaCα mRNA relative to a non-targeting control siNA (NTC): 26.8% | Avg GAPDH Expression: 64.16

B cAcAAccGcAuGAAGAcGG TTB / CCGucuucAuGcGGuuGuGUU (chain 1 CACAACCGCAUGAAGACGGTT; chain 2 CCGUCUUCAUGCGGUUGUGUU; siRNA; chain 1: DNA at AGT, 2'-fluoro at CU, [invAb] at 5' end, 3' end, backbone not given here; chain 2: sugars from the 5' end rrrfffffmfmfmmffmfmmm, backbone not given here) [Site 334]
Avg ENaCα Expression: 58.30 | Mean (level of ENaCα expression normalized to the level of GAPDH): 1.49 | Percent Reduction of the ENaCα mRNA relative to a non-targeting control siNA (NTC): 4.5% | Avg GAPDH Expression: 42.86

B cAcuccuGcuuccAGGAGA TTB / UCUccuGGAAGcAGGAGuGUU (sense CACUCCUGCUUCCAGGAGATT; antisense UCUCCUGGAAGCAGGAGUGUU; siRNA; sense: DNA at AGT, 2'-fluoro at CU, [invAb] at 5' end, 3' end, backbone not given here; antisense: sugars from the 5' end rrrfffmmmmmfmmmmmfmmm, backbone not given here) [Site 1351]
Avg ENaCα Expression: 68.14 | Mean (level of ENaCα expression normalized to the level of GAPDH): 1.12 | Percent Reduction of the ENaCα mRNA relative to a non-targeting control siNA (NTC): 28.2% | Avg GAPDH Expression: 64.22

B cGcAuGAAGAcGGccuucu TTB / AGAAGGccGucuucAuGcGUU (chain 1 CGCAUGAAGACGGCCUUCUTT; chain 2 AGAAGGCCGUCUUCAUGCGUU; siRNA; chain 1: DNA at AGT, 2'-fluoro at CU, [invAb] at 5' end, 3' end, backbone not given here; chain 2: sugars from the 5' end rrrmmmffmfffffmfmfmmm, backbone not given here) [Site 340]
Avg ENaCα Expression: 84.94 | Mean (level of ENaCα expression normalized to the level of GAPDH): 1.40 | Percent Reduction of the ENaCα mRNA relative to a non-targeting control siNA (NTC): 9.9% | Avg GAPDH Expression: 63.09

B ccAuccGccuGGuGuGcuc TTB / GAGcAcAccAGGcGGAuGGUU (chain 1 CCAUCCGCCUGGUGUGCUCTT; chain 2 GAGCACACCAGGCGGAUGGUU; siRNA; chain 1: DNA at AGT, 2'-fluoro at CU, [invAb] at 5' end, 3' end, backbone not given here; chain 2: sugars from the 5' end rrrfmfmffmmmfmmmfmmmm, backbone not given here) [Site 311]
Avg ENaCα Expression: 65.43 | Mean (level of ENaCα expression normalized to the level of GAPDH): 1.29 | Percent Reduction of the ENaCα mRNA relative to a non-targeting control siNA (NTC): 17.0% | Avg GAPDH Expression: 53.29

B ccGcAuGAAGAcGGccuuc TTB / GAAGGccGucuucAuGcGGUU (chain 1 CCGCAUGAAGACGGCCUUCTT; chain 2 GAAGGCCGUCUUCAUGCGGUU; siRNA; chain 1: DNA at AGT, 2'-fluoro at CU, [invAb] at 5' end, 3' end, backbone not given here; chain 2: sugars from the 5' end rrrmmffmfffffmfmfmmmm, backbone not given here) [Site 339]
Avg ENaCα Expression: 69.05 | Mean (level of ENaCα expression normalized to the level of GAPDH): 1.13 | Percent Reduction of the ENaCα mRNA relative to a non-targeting control siNA (NTC): 27.1% | Avg GAPDH Expression: 62.02
